According to paper PMC10146250, “Study on the liver Drug’s dominant metabolic enzymes for six effective components of the Huang qi Liuyi decoction” (Frontiers in Pharmacology, 2023):

Tests used:
[1] = design: method as in Wang et al., 2022c; details: oral administration of HQD, ref Wang et al., 2022c; cited from earlier work
[2] = Metabolic conversion in the liver microsomal incubation system without inhibitor; details: for Metabolic conversion rate under different reaction times: 0, 15, 30, 45, 60, 90 min at 37°C; for Metabolic conversion rate at different protein concentrations: liver microsomal protein 0, 0.25, 0.5, 0.75, 1, 2 mg/mL, 60 min
Procedure: Before the experiment, the mice were fasted for 12 h, and were euthanized after blood was taken from the eye sockets. The liver was quickly removed and perfused with pre-cooled saline through the hepatic portal vein until the liver was earthy yellow, washed three times with 1.15% KCl solution, wiped dry with filter paper, and then weighed. The liver was then cut up, homogenized with three times the volume of ethylene diamine tetraacetic acid (EDTA) in an ice bath, and centrifuged at 4°C for 10 min at 3,000 g. The supernatant was filtered, and the filtrate was centrifuged at 4°C for 20 min at 12,000 g. The supernatant was then centrifuged at 4°C for 45 min at 100,000 g, and the precipitate was resuspended in a resuspension solution (EDTA homogenate containing 20% glycerol). The protein concentration of the microsomes was determined using the BCA protein concentration determination kit, and the microsomes were aliquoted and pre-stored at −20°C for 60 min and transferred to −80°C for storage.
The total volume of the reaction was kept at 200 μL. The in vitro incubation system comprised of 50 μL liver microsomes (1 mg/mL), 50 μL specific inhibitor solution, 20 μL nicotinamide adenine dinucleotide phosphate (NADPH, 1 mmol/L), and 80 μL standard solution (100 ng/mL). The solution containing liver microsomes, specific inhibitors, and the standard solution was pre-incubated for 5 min at 37°C. NADPH, pre-incubated for 5 min at 37°C, was added to commence the reaction, and the solution was incubated for 60 min at 37°C on a thermostatic oscillator. At the end of the reaction, […] of ice-cold methanol containing the IS (the final concentrations of digoxin and puerarin were 0.745 μg/mL and 1 μg/mL, respectively) was added to terminate the reaction. The samples were vortexed for 1 min and centrifuged for 10 min (15,000 r/min). The contents of six active components in the supernatant were determined by HPLC-MS-MS. All reactions were performed in triplicate.
The six-component mixed standard solutions were incubated with the liver microsomal sample of different protein concentrations (0, 0.25, 0.5, 0.75, 1, 2 mg/mL) for 60 min, each with six replicates. Subsequently, samples were prepared according to the methods described in Section 2.6. The residual contents of the six effective components in each group were determined by HPLC-MS/MS to calculate the metabolic conversion rate.
The mixed standard solution containing the six components was incubated with mouse liver microsomes at 37°C for different time (0, 15, 30, 45, 60, 90 min), each with six replicates. Subsequently, samples were prepared according to the methods described in Section 2.6. The residual contents of the six effective components in each group were determined by HPLC-MS/MS to calculate the metabolic conversion rate.
The standard solution of astragaloside IV, glycyrrhizic acid, calycosin-glucuronide, formononetin, calycosin-7-O-β-D-glucoside, and ononin was added to phosphate-buffered saline (PBS, pH 7.0) as desired for dilution to produce a series of mixed solutions (50, 100, 250, 500, 1,000 ng/mL). Each mixed solution sample was incubated with 1.0 mg/mL liver microsomes for 60 min. The residual contents of the six effective components were determined by HPLC-MS/MS to calculate the metabolic conversion rate.
Α-naphthoflavone, quinidine, clomethiazole, ticlopidine, ketoconazole, and fluconazole were selected as specific inhibitors of CYP1A2, CYP2D22, CYP2E1, CYP2C37, CYP3A11, and CYP2C11, respectively ([El-Sherbeni and El-Kadi, 2014]; [Xu et al., 2016]). Forty-eight mice were randomly divided into eight groups of six mice each. The eight groups comprised six different specific inhibitor groups, a negative control group and a control group. For different specific inhibitor groups, mouse liver microsomes were incubated with related CYP450 enzyme specific inhibitors and mixed standard solutions.

[3] = target: T1, CYP2E1 (Mus musculus, UniProt Q05421); assay: Mouse liver microsomal incubation with clomethiazole, specific inhibitor of CYP2E1; type: in vitro ADME; details: mouse liver microsomes 1 mg/mL, 60 min, 37°C, component 100 ng/mL, vs negative control without inhibitor
T1 construct: from tissue; host or cells: liver microsomes of control (db/m) mice
Procedure: (§1) All reactions were performed in triplicate.

[4] = target: T2, CYP1A2 (Mus musculus, UniProt P00186); assay: Mouse liver microsomal incubation with α-naphthoflavone, specific inhibitor of CYP1A2; type: in vitro ADME; details: mouse liver microsomes 1 mg/mL, 60 min, 37°C, component 100 ng/mL, vs negative control without inhibitor
T2 construct: from tissue; host or cells: liver microsomes of control (db/m) mice
T2 sequence (P00186 1-513): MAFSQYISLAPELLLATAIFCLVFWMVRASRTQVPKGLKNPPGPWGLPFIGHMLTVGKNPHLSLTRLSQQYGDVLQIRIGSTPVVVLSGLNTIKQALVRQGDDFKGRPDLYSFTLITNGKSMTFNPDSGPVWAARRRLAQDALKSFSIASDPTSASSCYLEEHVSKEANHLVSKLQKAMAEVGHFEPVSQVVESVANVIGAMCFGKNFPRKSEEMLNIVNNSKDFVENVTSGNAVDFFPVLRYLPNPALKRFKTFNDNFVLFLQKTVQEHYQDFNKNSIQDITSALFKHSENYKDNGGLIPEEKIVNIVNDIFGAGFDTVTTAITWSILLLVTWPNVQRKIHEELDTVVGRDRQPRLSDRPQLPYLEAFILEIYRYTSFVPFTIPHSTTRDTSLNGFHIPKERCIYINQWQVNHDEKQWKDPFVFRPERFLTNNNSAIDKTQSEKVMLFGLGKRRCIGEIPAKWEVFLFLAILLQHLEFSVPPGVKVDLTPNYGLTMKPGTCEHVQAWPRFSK
Procedure: as §1

[5] = tested on: CYP2C11; assay: Mouse liver microsomal incubation with fluconazole, specific inhibitor of CYP2C11; type: in vitro ADME; details: mouse liver microsomes 1 mg/mL, 60 min, 37°C, component 100 ng/mL, vs negative control without inhibitor
Procedure: as §1

[6] = target: T3, CYP2C37 (Mus musculus, UniProt P56654); assay: Mouse liver microsomal incubation with ticlopidine, specific inhibitor of CYP2C37; type: in vitro ADME; details: mouse liver microsomes 1 mg/mL, 60 min, 37°C, component 100 ng/mL, vs negative control without inhibitor
T3 construct: from tissue; host or cells: liver microsomes of control (db/m) mice
T3 sequence (P56654 21-490): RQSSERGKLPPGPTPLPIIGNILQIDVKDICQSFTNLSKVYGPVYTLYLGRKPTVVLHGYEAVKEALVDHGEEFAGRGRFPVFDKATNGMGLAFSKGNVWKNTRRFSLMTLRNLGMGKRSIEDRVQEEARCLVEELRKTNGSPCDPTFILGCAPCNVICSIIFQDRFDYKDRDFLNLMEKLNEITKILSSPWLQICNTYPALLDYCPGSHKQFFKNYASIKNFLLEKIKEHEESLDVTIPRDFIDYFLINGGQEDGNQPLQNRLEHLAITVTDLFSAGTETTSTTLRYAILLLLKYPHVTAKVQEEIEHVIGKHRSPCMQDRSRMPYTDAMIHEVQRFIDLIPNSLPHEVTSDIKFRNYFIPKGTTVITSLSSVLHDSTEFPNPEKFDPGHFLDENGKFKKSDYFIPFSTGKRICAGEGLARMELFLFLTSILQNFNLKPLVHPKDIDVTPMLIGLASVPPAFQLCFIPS
Procedure: as §1

[7] = tested on: liver CYP450 enzymes; assay: Mouse liver microsomal incubation with the panel of specific CYP enzyme inhibitors; type: in vitro ADME; details: mouse liver microsomes 1 mg/mL, 60 min, 37°C, component 100 ng/mL; inhibitors of CYP1A2, CYP2D22, CYP2E1, CYP2C37, CYP3A11, CYP2C11
Procedure: as §1

[8] = tested on: CYP3A11; assay: Mouse liver microsomal incubation with ketoconazole, specific inhibitor of CYP3A11; type: in vitro ADME; details: mouse liver microsomes 1 mg/mL, 60 min, 37°C, component 100 ng/mL, vs negative control without inhibitor
Procedure: as §1

T1 sequence (Q05421 whole entry): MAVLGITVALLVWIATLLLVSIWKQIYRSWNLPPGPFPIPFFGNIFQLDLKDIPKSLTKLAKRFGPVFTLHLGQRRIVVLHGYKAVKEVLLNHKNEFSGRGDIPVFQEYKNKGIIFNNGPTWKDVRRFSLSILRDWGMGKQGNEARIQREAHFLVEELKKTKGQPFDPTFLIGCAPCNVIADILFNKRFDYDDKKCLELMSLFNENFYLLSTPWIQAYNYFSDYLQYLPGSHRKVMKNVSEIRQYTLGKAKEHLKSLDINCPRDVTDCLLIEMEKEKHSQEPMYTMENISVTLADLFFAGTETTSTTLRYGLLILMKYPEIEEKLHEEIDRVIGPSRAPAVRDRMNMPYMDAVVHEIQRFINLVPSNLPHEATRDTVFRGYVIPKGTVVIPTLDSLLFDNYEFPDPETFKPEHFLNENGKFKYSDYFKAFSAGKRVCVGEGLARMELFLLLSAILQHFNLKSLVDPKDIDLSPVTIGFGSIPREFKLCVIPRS

| SMILES | Absorption and elimination in mice with diabetic nephropathy [1] | Metabolic conversion rate under different reaction times [2] | Metabolic conversion rate at different protein concentrations [2] | Effect of clomethiazole (CYP2E1 inhibitor) on metabolism of the component (residual content) [3] | Effect of α-naphthoflavone (CYP1A2 inhibitor) on metabolism of the component (residual content) [4] | Effect of fluconazole (CYP2C11 inhibitor) on metabolism of the component (residual content) [5] | Effect of ticlopidine (CYP2C37 inhibitor) on metabolism of the component (residual content) [6] | Effect of the specific CYP enzyme inhibitors on metabolism of the component [7] | Effect of ketoconazole (CYP3A11 inhibitor) on metabolism of the component (residual content) [8] |
| --- | --- | --- | --- | --- | --- | --- | --- | --- | --- |
| COc1ccc(-c2coc3cc(O)ccc3c2=O)cc1O | greater absorption and delayed elimination | increased with time, however, saturated after 60 min | initially increased with the increase in protein concentration | prevented the metabolism | prevented the metabolism | – | – | – | – |
| CC(C)(O)[C@@H]1CC[C@](C)([C@H]2[C@@H](O)C[C@@]3(C)[C@@H]4C[C@H](O[C@@H]5O[C@H](CO)[C@@H](O)[C@H](O)[C@H]5O)[C@H]5C(C)(C)[C@@H](O[C@@H]6OC[C@@H](O)[C@H](O)[C@H]6O)CC[C@@]56C[C@@]46CC[C@]23C)O1 [Astragaloside IV] | greater absorption and delayed elimination | increased with time, however, saturated after 60 min | initially increased with the increase in protein concentration | – | – | prevented the metabolism | prevented the metabolism | – | – |
| COc1ccc(-c2coc3cc(O[C@@H]4O[C@H](CO)[C@@H](O)[C@H](O)[C@H]4O)ccc3c2=O)cc1O [Calycosin-7-O-β-D-glucoside] | greater absorption and delayed elimination | increased with time, however, saturated after 60 min | initially increased with the increase in protein concentration | – | – | – | – | not affected | – |
| COc1ccc(-c2coc3cc(O)ccc3c2=O)cc1 [Formononetin] | greater absorption and delayed elimination | increased with time, however, saturated after 60 min | initially increased with the increase in protein concentration | – | – | prevented the metabolism | – | – | prevented the metabolism |
| CC1(C)[C@@H](O[C@H]2O[C@H](C(=O)O)[C@@H](O)[C@H](O)[C@H]2O[C@@H]2O[C@H](C(=O)O)[C@@H](O)[C@H](O)[C@H]2O)CC[C@]2(C)[C@H]3C(=O)C=C4[C@@H]5C[C@@](C)(C(=O)O)CC[C@]5(C)CC[C@@]4(C)[C@]3(C)CC[C@@H]12 [Glycyrrhizic acid] | greater absorption and delayed elimination | increased with time, however, saturated after 60 min | initially increased with the increase in protein concentration | – | – | – | prevented the metabolism | – | prevented the metabolism |
| COc1ccc(-c2coc3cc(O[C@@H]4O[C@H](CO)[C@@H](O)[C@H](O)[C@H]4O)ccc3c2=O)cc1 [Ononin] | greater absorption and delayed elimination | increased with time, however, saturated after 60 min | initially increased with the increase in protein concentration | – | – | – | – | not affected | – |
